Data published in PubChem BioAssay (NCI).
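Interpolation was linear, between the two tested concentrations surrounding the appropriate level; five concentrations were tested over 48 hours in 96-well plates. TGI denotes the concentration required for complete inhibition of growth.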

Legend:
Test in all cases: NCI anticancer screen, dose series, 48 h
786-0 renal = tested on: 786-0 renal
A498 renal = tested on: A498 renal
ACHN renal = tested on: ACHN renal
BT-549 breast = tested on: BT-549 breast
CAKI-1 renal = tested on: CAKI-1 renal
COLO 205 colon = tested on: COLO 205 colon
DU-145 prostate = tested on: DU-145 prostate
EKVX NSCLC = tested on: EKVX NSCLC
HCC-2998 colon = tested on: HCC-2998 colon
HCT-116 colon = tested on: HCT-116 colon
HCT-15 colon = tested on: HCT-15 colon
HL-60(TB) leukemia = tested on: HL-60(TB) leukemia
HOP-62 NSCLC = tested on: HOP-62 NSCLC
HS 578T breast = tested on: HS 578T breast
HT29 colon = tested on: HT29 colon
IGROV1 ovarian = tested on: IGROV1 ovarian
K-562 leukemia = tested on: K-562 leukemia
KM12 colon = tested on: KM12 colon
LOX IMVI melanoma = tested on: LOX IMVI melanoma
MALME-3M melanoma = tested on: MALME-3M melanoma
MCF7 breast = tested on: MCF7 breast
MDA-MB-231 breast = tested on: MDA-MB-231 breast
MDA-MB-435 = tested on: MDA-MB-435
MDA-N = tested on: MDA-N
MOLT-4 leukemia = tested on: MOLT-4 leukemia
NCI-H226 lung = tested on: NCI-H226 lung
NCI-H23 lung = tested on: NCI-H23 lung
NCI-H460 lung = tested on: NCI-H460 lung
NCI-H522 lung = tested on: NCI-H522 lung
NCI/ADR-RES ovarian = tested on: NCI/ADR-RES ovarian
OVCAR-3 ovarian = tested on: OVCAR-3 ovarian
OVCAR-4 ovarian = tested on: OVCAR-4 ovarian
OVCAR-5 ovarian = tested on: OVCAR-5 ovarian
OVCAR-8 ovarian = tested on: OVCAR-8 ovarian
PC-3 prostate = tested on: PC-3 prostate
RXF 393 renal = tested on: RXF 393 renal
SF-268 CNS = tested on: SF-268 CNS
SF-295 CNS = tested on: SF-295 CNS
SK-MEL-2 melanoma = tested on: SK-MEL-2 melanoma
SK-MEL-28 melanoma = tested on: SK-MEL-28 melanoma
SK-MEL-5 melanoma = tested on: SK-MEL-5 melanoma
SN12C renal = tested on: SN12C renal
SNB-19 CNS = tested on: SNB-19 CNS
SNB-75 CNS = tested on: SNB-75 CNS
SR leukemia = tested on: SR leukemia
SW-620 colon = tested on: SW-620 colon
U251 CNS = tested on: U251 CNS
UACC-257 melanoma = tested on: UACC-257 melanoma
UACC-62 melanoma = tested on: UACC-62 melanoma
UO-31 renal = tested on: UO-31 renal
A549 NSCLC = tested on: A549 NSCLC
CCRF-CEM leukemia = tested on: CCRF-CEM leukemia
HOP-92 NSCLC = tested on: HOP-92 NSCLC
M14 melanoma = tested on: M14 melanoma
RPMI-8226 leukemia = tested on: RPMI-8226 leukemia
SF-539 CNS = tested on: SF-539 CNS
SK-OV-3 ovarian = tested on: SK-OV-3 ovarian
T-47D breast = tested on: T-47D breast
TK-10 renal = tested on: TK-10 renal

**Q.** `COc1ccc(Nc2nc3ccc(C(F)(F)F)cc3nc2C(=O)O)cc1OC` was tested. Which TGI (786-0 renal) did it give?
**A.** > 100 µM

**Q.** What about the TGI (A498 renal) of the same compound?
**A.** 86.6 µM

**Q.** And the TGI (ACHN renal)?
**A.** > 100 µM

**Q.** And the TGI (BT-549 breast)?
**A.** 71.5 µM

**Q.** And the TGI (CAKI-1 renal)?
**A.** > 100 µM

**Q.** What about the TGI (COLO 205 colon) of the same compound?
**A.** > 100 µM

**Q.** What about the TGI (DU-145 prostate) of the same compound?
**A.** > 100 µM

**Q.** What about the TGI (EKVX NSCLC) of the same compound?
**A.** > 100 µM

**Q.** And the TGI (HCC-2998 colon)?
**A.** 43.7 µM

**Q.** And the TGI (HCT-116 colon)?
**A.** 80 µM

**Q.** What about the TGI (HCT-15 colon) of the same compound?
**A.** > 100 µM

**Q.** And the TGI (HL-60(TB) leukemia)?
**A.** 64.1 µM

**Q.** What about the TGI (HOP-62 NSCLC) of the same compound?
**A.** 75.4 µM

**Q.** What about the TGI (HS 578T breast) of the same compound?
**A.** 96.6 µM

**Q.** What about the TGI (HT29 colon) of the same compound?
**A.** > 100 µM

**Q.** And the TGI (IGROV1 ovarian)?
**A.** > 100 µM

**Q.** What about the TGI (K-562 leukemia) of the same compound?
**A.** > 100 µM

**Q.** And the TGI (KM12 colon)?
**A.** 33.7 µM

**Q.** What about the TGI (LOX IMVI melanoma) of the same compound?
**A.** > 100 µM

**Q.** And the TGI (MALME-3M melanoma)?
**A.** > 100 µM

**Q.** What about the TGI (MCF7 breast) of the same compound?
**A.** > 100 µM

**Q.** What about the TGI (MDA-MB-231 breast) of the same compound?
**A.** > 100 µM

**Q.** What about the TGI (MDA-MB-435) of the same compound?
**A.** 82.5 µM

**Q.** What about the TGI (MDA-N) of the same compound?
**A.** > 100 µM

**Q.** And the TGI (MOLT-4 leukemia)?
**A.** 43.5 µM

**Q.** And the TGI (NCI-H226 lung)?
**A.** > 100 µM

**Q.** What about the TGI (NCI-H23 lung) of the same compound?
**A.** 58.6 µM

**Q.** And the TGI (NCI-H460 lung)?
**A.** 54.6 µM

**Q.** What about the TGI (NCI-H522 lung) of the same compound?
**A.** 84.6 µM

**Q.** What about the TGI (NCI/ADR-RES ovarian) of the same compound?
**A.** 57.5 µM

**Q.** And the TGI (OVCAR-3 ovarian)?
**A.** 40.8 µM

**Q.** What about the TGI (OVCAR-4 ovarian) of the same compound?
**A.** > 100 µM

**Q.** What about the TGI (OVCAR-5 ovarian) of the same compound?
**A.** > 100 µM

**Q.** What about the TGI (OVCAR-8 ovarian) of the same compound?
**A.** > 100 µM

**Q.** And the TGI (PC-3 prostate)?
**A.** 94.6 µM

**Q.** And the TGI (RXF 393 renal)?
**A.** > 100 µM

**Q.** And the TGI (SF-268 CNS)?
**A.** > 100 µM

**Q.** What about the TGI (SF-295 CNS) of the same compound?
**A.** 77.6 µM

**Q.** And the TGI (SK-MEL-2 melanoma)?
**A.** 35.5 µM

**Q.** And the TGI (SK-MEL-28 melanoma)?
**A.** > 100 µM

**Q.** What about the TGI (SK-MEL-5 melanoma) of the same compound?
**A.** 48.3 µM

**Q.** What about the TGI (SN12C renal) of the same compound?
**A.** > 100 µM

**Q.** What about the TGI (SNB-19 CNS) of the same compound?
**A.** > 100 µM

**Q.** And the TGI (SNB-75 CNS)?
**A.** 81.5 µM

**Q.** What about the TGI (SR leukemia) of the same compound?
**A.** 58 µM

**Q.** What about the TGI (SW-620 colon) of the same compound?
**A.** > 100 µM

**Q.** And the TGI (U251 CNS)?
**A.** > 100 µM

**Q.** What about the TGI (UACC-257 melanoma) of the same compound?
**A.** > 100 µM

**Q.** And the TGI (UACC-62 melanoma)?
**A.** > 100 µM

**Q.** What about the TGI (UO-31 renal) of the same compound?
**A.** 43.7 µM

**Q.** Which TGI (786-0 renal) does the source give for `CCSC1=CC(=O)c2nc3ccccc3c3ccnc1c23` here?
**A.** 11.4 µM

**Q.** And the TGI (A549 NSCLC)?
**A.** 22.9 µM

**Q.** And the TGI (ACHN renal)?
**A.** > 44.7 µM

**Q.** What about the TGI (BT-549 breast) of the same compound?
**A.** 26.3 µM

**Q.** What about the TGI (CAKI-1 renal) of the same compound?
**A.** 9.12 µM

**Q.** And the TGI (CCRF-CEM leukemia)?
**A.** > 25.9 µM

**Q.** And the TGI (COLO 205 colon)?
**A.** > 32.8 µM

**Q.** And the TGI (DU-145 prostate)?
**A.** 15.5 µM

**Q.** What about the TGI (EKVX NSCLC) of the same compound?
**A.** 7.59 µM

**Q.** What about the TGI (HCC-2998 colon) of the same compound?
**A.** 25 µM

**Q.** What about the TGI (HCT-116 colon) of the same compound?
**A.** > 25.1 µM

**Q.** And the TGI (HCT-15 colon)?
**A.** 7.37 µM

**Q.** What about the TGI (HL-60(TB) leukemia) of the same compound?
**A.** 7.74 µM

**Q.** What about the TGI (HOP-62 NSCLC) of the same compound?
**A.** > 51.3 µM

**Q.** And the TGI (HOP-92 NSCLC)?
**A.** 38.6 µM

**Q.** And the TGI (HS 578T breast)?
**A.** 14.7 µM

**Q.** What about the TGI (HT29 colon) of the same compound?
**A.** 16.9 µM

**Q.** What about the TGI (IGROV1 ovarian) of the same compound?
**A.** 9.4 µM

**Q.** What about the TGI (KM12 colon) of the same compound?
**A.** 25.2 µM

**Q.** And the TGI (LOX IMVI melanoma)?
**A.** > 36.1 µM

**Q.** And the TGI (M14 melanoma)?
**A.** 6.15 µM

**Q.** What about the TGI (MALME-3M melanoma) of the same compound?
**A.** 3.32 µM

**Q.** And the TGI (MCF7 breast)?
**A.** 4.79 µM

**Q.** What about the TGI (MDA-MB-231 breast) of the same compound?
**A.** 31.8 µM

**Q.** What about the TGI (MDA-MB-435) of the same compound?
**A.** 3.43 µM

**Q.** And the TGI (MDA-N)?
**A.** 4 µM

**Q.** What about the TGI (MOLT-4 leukemia) of the same compound?
**A.** 15.3 µM

**Q.** And the TGI (NCI-H226 lung)?
**A.** 27.1 µM

**Q.** What about the TGI (NCI-H23 lung) of the same compound?
**A.** 11.4 µM

**Q.** And the TGI (NCI-H460 lung)?
**A.** 23.8 µM

**Q.** And the TGI (NCI-H522 lung)?
**A.** 3.78 µM

**Q.** What about the TGI (NCI/ADR-RES ovarian) of the same compound?
**A.** > 30.1 µM

**Q.** What about the TGI (OVCAR-3 ovarian) of the same compound?
**A.** > 23.1 µM

**Q.** What about the TGI (OVCAR-4 ovarian) of the same compound?
**A.** 7.53 µM

**Q.** What about the TGI (OVCAR-5 ovarian) of the same compound?
**A.** 15 µM

**Q.** And the TGI (OVCAR-8 ovarian)?
**A.** > 100 µM

**Q.** And the TGI (PC-3 prostate)?
**A.** > 23.3 µM

**Q.** What about the TGI (RPMI-8226 leukemia) of the same compound?
**A.** > 31.6 µM

**Q.** What about the TGI (RXF 393 renal) of the same compound?
**A.** 18.2 µM

**Q.** What about the TGI (SF-268 CNS) of the same compound?
**A.** > 22 µM

**Q.** What about the TGI (SF-295 CNS) of the same compound?
**A.** 31 µM

**Q.** And the TGI (SF-539 CNS)?
**A.** 13.2 µM

**Q.** What about the TGI (SK-MEL-2 melanoma) of the same compound?
**A.** 5.6 µM

**Q.** What about the TGI (SK-MEL-28 melanoma) of the same compound?
**A.** 25.3 µM

**Q.** What about the TGI (SK-OV-3 ovarian) of the same compound?
**A.** > 100 µM

**Q.** What about the TGI (SN12C renal) of the same compound?
**A.** 8.43 µM

**Q.** And the TGI (SNB-19 CNS)?
**A.** > 87.1 µM

**Q.** And the TGI (SNB-75 CNS)?
**A.** 26.6 µM

**Q.** What about the TGI (SR leukemia) of the same compound?
**A.** 15.5 µM

**Q.** What about the TGI (SW-620 colon) of the same compound?
**A.** > 21.4 µM

**Q.** And the TGI (T-47D breast)?
**A.** 78.2 µM

**Q.** What about the TGI (TK-10 renal) of the same compound?
**A.** 26.5 µM

**Q.** And the TGI (U251 CNS)?
**A.** 14.5 µM

**Q.** And the TGI (UACC-257 melanoma)?
**A.** 4.19 µM

**Q.** What about the TGI (UACC-62 melanoma) of the same compound?
**A.** 4.32 µM

**Q.** And the TGI (UO-31 renal)?
**A.** 19 µM
